Measured values reported in patent US7872014B2, “Anaplastic lymphoma kinase modulators and methods of use” (Exelixis, Inc., priority 2003, dated 2011).

These molecules were tested against T1, ALK (baculovirus expressed human ALK kinase domain F1098-K1410) (Homo sapiens, UniProt Q9UM73) (assay: Luciferase-Coupled Chemiluminescent Kinase assay (LCCA), ALK biochemical activity). Conditions: inhibition of ALK; mean values; 1 μM ATP, 4 μM poly-AEKY, 12 nM ALK, 2 hours ambient temperature.
T1 construct: baculovirus expressed human ALK kinase domain F1098-K1410; made in house
T1 sequence (Q9UM73 1098-1410): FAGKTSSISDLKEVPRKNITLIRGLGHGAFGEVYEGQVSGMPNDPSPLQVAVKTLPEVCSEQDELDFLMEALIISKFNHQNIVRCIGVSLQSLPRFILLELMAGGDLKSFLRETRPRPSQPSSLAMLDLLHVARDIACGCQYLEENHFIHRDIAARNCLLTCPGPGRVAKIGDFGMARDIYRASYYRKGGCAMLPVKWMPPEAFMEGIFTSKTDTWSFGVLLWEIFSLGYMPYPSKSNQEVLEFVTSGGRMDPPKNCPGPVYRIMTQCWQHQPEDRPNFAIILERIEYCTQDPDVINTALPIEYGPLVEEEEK
How it was run: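 Luciferase-coupled readout of ATP remaining after reaction of 12 nM ALK kinase domain with 1 μM ATP and 4 μM poly-AEKY, Tris-HCl pH 7.5 buffer with MgCl2 and MnCl2. Incubated 2 h at ambient temperature; inhibition derived from ATP consumption across serial compound dilutions.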

Row | SMILES | IC50 [nM]
1 | COc1c(OCCN2CCCC2)cc(F)c2c(-c3ccc(Cl)c(O)c3)nc3[nH]nc(C)c3c12 [Example 220, 2-chloro-5-{6-fluoro-1-methyl-9-(methyloxy)-8-[(2-pyrrolidin-1-ylethyl)oxy]-3H-pyrazolo[3,4-c]isoquinolin-5-yl}phenol] | ≤ 99
2 | CCc1c(OC)ccc2c(-c3ccc(O)c(Cl)c3)nc3[nH]nc(C)c3c12 [Example 168, 2-chloro-4-[9-ethyl-1-methyl-8-(methyloxy)-3H-pyrazolo[3,4-c]isoquinolin-5-yl]phenol] | ≤ 99
3 | COc1c(OC[C@H](N)C(C)(C)C)cc(F)c2c(-c3ccc(O)c(Cl)c3)nc3[nH]nc(C)c3c12 [Example 213, 4-[8-{[(2R)-2-amino-3,3-dimethylbutyl]oxy}-6-fluoro-1-methyl-9-(methyloxy)-3H-pyrazolo[3,4-c]isoquinolin-5-yl]-2-chlorophenol] | ≤ 99
4 | Cc1n[nH]c2nc(-c3ccc4cc[nH]c4c3)c3c(F)cc(O)c(F)c3c12 [Example 202, 6,9-difluoro-5-(1H-indol-6-yl)-1-methyl-3H-pyrazolo[3,4-c]isoquinolin-8-ol] | > 2000
5 | COc1c(OCCN2C3CCC2CC(N)C3)cc(F)c2c(-c3ccc(O)c(Cl)c3)nc3[nH]nc(C)c3c12 (stereo not shown) [Example 217, 4-[8-{[2-(3-amino-8-azabicyclo[3.2.1]oct-8-yl)ethyl]oxy}-6-fluoro-1-methyl-9-(methyloxy)-3H-pyrazolo[3,4-c]isoquinolin-5-yl]-2-chlorophenol] | ≤ 99
6 | COCCOc1cc2c(cc1C)c(-c1ccc(O)c(Cl)c1)nc1[nH]nc(C)c12 [Example 131, 2-chloro-4-(1,7-dimethyl-8-{[2-(methyloxy)ethyl]oxy}-3H-pyrazolo[3,4-c]isoquinolin-5-yl)phenol] | ≤ 99
7 | COc1c(OCCN2CCN(c3ccccn3)CC2)cc(F)c2c(-c3ccc(O)c(Cl)c3)nc3[nH]nc(C)c3c12 [Example 238, 2-chloro-4-(6-fluoro-1-methyl-9-(methyloxy)-8-{[2-(4-pyridin-2-ylpiperazin-1-yl)ethyl]oxy}-3H-pyrazolo[3,4-c]isoquinolin-5-yl)phenol] | ≤ 99
8 | COc1cc2c(-c3ccc(O)c(Cl)c3)nc3[nH]nc(C)c3c2cc1OC [Example 41, 2-chloro-4-[1-methyl-7,8-bis(methyloxy)-3H-pyrazolo[3,4-c]isoquinolin-5-yl]phenol] | ≤ 99
9 | COCc1n[nH]c2nc(-c3ccc(O)c(Cl)c3)c3cc(OC)c(OC)cc3c12 [Example 138, 4-{7,8-bis(methyloxy)-1-[(methyloxy)methyl]-3H-pyrazolo[3,4-c]isoquinolin-5-yl}-2-chlorophenol] | 100 to 999
10 | COc1cc2c(cc1OCCN1CCOCC1)c(-c1ccc(O)cc1)nc1[nH]nc(C)c12 [Example 39, 4-{1-methyl-8-(methyloxy)-7-[(2-morpholin-4-ylethyl)oxy]-3H-pyrazolo[3,4-c]isoquinolin-5-yl}phenol] | 100 to 999
11 | COC[C@@H]1CCCN1CCOc1cc(F)c2c(-c3ccc(O)c(Cl)c3)nc3[nH]nc(C)c3c2c1OC [Example 232, 2-chloro-4-{6-fluoro-1-methyl-9-(methyloxy)-8-[(2-{(2S)-2-[(methyloxy)methyl]pyrrolidin-1-yl}ethyl)oxy]-3H-pyrazolo[3,4-c]isoquinolin-5-yl}phenol] | ≤ 99
12 | COc1cc2c(cc1C)c(-c1ccc(O)c(Br)c1)nc1[nH]nc(C)c12 [Example 102, 2-bromo-4-[1,7-dimethyl-8-(methyloxy)-3H-pyrazolo[3,4-c]isoquinolin-5-yl]phenol] | ≤ 99
13 | COCCOc1cc2c(cc1C(C)C)c(-c1ccc(O)c(Cl)c1)nc1[nH]nc(C)c12 [Example 167, 2-chloro-4-(1-methyl-7-(1-methylethyl)-8-{[2-(methyloxy)ethyl]oxy}-3H-pyrazolo[3,4-c]isoquinolin-5-yl)phenol] | ≤ 99
14 | COc1c(F)cc2c(c(-c3ccc(O)c(Cl)c3)nc3[nH]nc(C)c32)c1O [Example 170, 5-(3-chloro-4-hydroxyphenyl)-8-fluoro-1-methyl-7-(methyloxy)-3H-pyrazolo[3,4-c]isoquinolin-6-ol] | ≤ 99
15 | COc1cc2c(-c3ccc(O)cc3)nc3[nH]nc(C(C)C)c3c2cc1OC [Example 28, 4-[1-(1-methylethyl)-7,8-bis(methyloxy)-3H-pyrazolo[3,4-c]isoquinolin-5-yl]phenol] | 100 to 999
16 | COc1c(OCCC2CCN(C)CC2)cc(F)c2c(-c3ccc(O)c(Cl)c3)nc3[nH]nc(C)c3c12 [Example 209, 2-chloro-4-(6-fluoro-1-methyl-9-(methyloxy)-8-{[2-(1-methylpiperidin-4-yl)ethyl]oxy}-3H-pyrazolo[3,4-c]isoquinolin-5-yl)phenol] | ≤ 99

Second part, the molecule after the results:

Row | IC50 [nM] | SMILES
17 | ≤ 99 | COCCOc1ccc2c(-c3ccc(O)cc3F)nc3[nH]nc(C)c3c2c1OC [Example 130, 3-fluoro-4-(1-methyl-9-(methyloxy)-8-{[2-(methyloxy)ethyl]oxy}-3H-pyrazolo[3,4-c]isoquinolin-5-yl)phenol]
18 | ≤ 99 | COc1cc2c(cc1C)c(-c1ccc(O)c(Cl)c1)nc1[nH]nc(C)c12 [Example 101, 2-chloro-4-[1,7-dimethyl-8-(methyloxy)-3H-pyrazolo[3,4-c]isoquinolin-5-yl]phenol]
19 | ≤ 99 | COCCOc1ccc2c(-c3ccc(O)cc3)nc3[nH]nc(C)c3c2c1OCCOC [Example 97, 4-(1-methyl-8,9-bis{[2-(methyloxy)ethyl]oxy}-3H-pyrazolo[3,4-c]isoquinolin-5-yl)phenol]
20 | 100 to 999 | COc1cc2c(-c3ccc(O)cc3)nc3[nH]ncc3c2cc1OC [Example 29, 4-[7,8-bis(methyloxy)-3H-pyrazolo[3,4-c]isoquinolin-5-yl]phenol]
21 | ≤ 99 | COc1c(OCCCN2CCCCC2)cc(F)c2c(-c3ccc(O)c(Cl)c3)nc3[nH]nc(C)c3c12 [Example 225, 2-chloro-4-{6-fluoro-1-methyl-9-(methyloxy)-8-[(3-piperidin-1-ylpropyl)oxy]-3H-pyrazolo[3,4-c]isoquinolin-5-yl}phenol]
22 | ≤ 99 | COc1cc2c(-c3ccc(O)c(Cl)c3)nc3[nH]nc(C)c3c2cc1OC(C)C [Example 133, 2-chloro-4-[1-methyl-8-[(1-methylethyl)oxy]-7-(methyloxy)-3H-pyrazolo[3,4-c]isoquinolin-5-yl]phenol]
23 | ≤ 99 | COCCOc1cc2c(c(-c3ccc(O)cc3F)nc3[nH]nc(C)c32)c(F)c1OC [Example 132, 3-fluoro-4-(6-fluoro-1-methyl-7-(methyloxy)-8-{[2-(methyloxy)ethyl]oxy}-3H-pyrazolo[3,4-c]isoquinolin-5-yl)phenol]
24 | ≤ 99 | COc1ccc2c(-c3ccc(O)cc3)nc3[nH]nc(C)c3c2c1OCC1CCN(C)CC1 [Example 64, 4-(1-methyl-8-(methyloxy)-9-{[(1-methylpiperidin-4-yl)methyl]oxy}-3H-pyrazolo[3,4-c]isoquinolin-5-yl)phenol]
25 | ≤ 99 | CCN1CCC(COc2cc(F)c3c(-c4ccc(O)c(Cl)c4)nc4[nH]nc(C)c4c3c2OC)CC1 [Example 210, 2-chloro-4-[8-{[(1-ethylpiperidin-4-yl)methyl]oxy}-6-fluoro-1-methyl-9-(methyloxy)-3H-pyrazolo[3,4-c]isoquinolin-5-yl]phenol]
26 | ≤ 99 | COc1ccc2c(-c3ccc(O)cc3)nc3[nH]nc(C)c3c2c1Br [Example 104, 4-[9-bromo-1-methyl-8-(methyloxy)-3H-pyrazolo[3,4-c]isoquinolin-5-yl]phenol]
27 | ≤ 99 | COc1c(OCCN2CCN(CC(C)C)CC2)cc(F)c2c(-c3ccc(O)c(Cl)c3)nc3[nH]nc(C)c3c12 [Example 214, 2-chloro-4-[6-fluoro-1-methyl-9-(methyloxy)-8-({2-[4-(2-methylpropyl)piperazin-1-yl]ethyl}oxy)-3H-pyrazolo[3,4-c]isoquinolin-5-yl]phenol]
28 | ≤ 99 | CCN(CC)CCOc1cc(F)c2c(-c3ccc(O)c(Cl)c3)nc3[nH]nc(C)c3c2c1OC [Example 219, 2-chloro-4-[8-{[2-(diethylamino)ethyl]oxy}-6-fluoro-1-methyl-9-(methyloxy)-3H-pyrazolo[3,4-c]isoquinolin-5-yl]phenol]
29 | ≤ 99 | COCCOc1cc2c(cc1OC)c(-c1ccc(O)c(Br)c1)nc1[nH]nc(C)c12 [Example 116, 2-bromo-4-(1-methyl-7-(methyloxy)-8-{[2-(methyloxy)ethyl]oxy}-3H-pyrazolo[3,4-c]isoquinolin-5-yl)phenol]
30 | 100 to 999 | COc1ccc2c(-c3ccc(O)c(Br)c3)nc3[nH]nc(C)c3c2c1OCCN1CCOCC1 [Example 80, 2-bromo-4-{1-methyl-8-(methyloxy)-9-[(2-morpholin-4-ylethyl)oxy]-3H-pyrazolo[3,4-c]isoquinolin-5-yl}phenol]
31 | ≤ 99 | COc1c(OCC2CCN(C)CC2)cc(F)c2c(-c3ccc(O)c(Cl)c3)nc3[nH]nc(C)c3c12 [Example 182, 2-chloro-4-(6-fluoro-1-methyl-9-(methyloxy)-8-{[(1-methylpiperidin-4-yl)methyl]oxy}-3H-pyrazolo[3,4-c]isoquinolin-5-yl)phenol]
32 | ≤ 99 | COc1cc2c(-c3ccc(O)cc3F)nc3[nH]nc(C)c3c2cc1OC [Example 114, 3-fluoro-4-[1-methyl-7,8-bis(methyloxy)-3H-pyrazolo[3,4-c]isoquinolin-5-yl]phenol]
33 | ≤ 99 | COc1cc2c(-c3ccc(O)c(Cl)c3)nc3[nH]nc(C)c3c2cc1OCC1CCOCC1 [Example 161, 2-chloro-4-{1-methyl-7-(methyloxy)-8-[(tetrahydro-2H-pyran-4-ylmethyl)oxy]-3H-pyrazolo[3,4-c]isoquinolin-5-yl}phenol]
34 | 100 to 999 | Cc1n[nH]c2nc(-c3ccccc3F)c3c(F)cc4c(c3c12)OCCO4 [Example 160, 6-fluoro-7-(2-fluorophenyl)-11-methyl-2,3-dihydro-9H-[1,4]dioxino[2,3-f]pyrazolo[3,4-c]isoquinoline]
